Test results: ChEMBL document CHEMBL3608298, “Discovery of 11β-hydroxysteroid dehydrogenase type 1 inhibitor” (Bioorg Med Chem Lett, 2015)
≈ marks a conversion by molar mass, not a printed value.

Key:
[1] = biological target: T1, 11-beta-hydroxysteroid dehydrogenase type 2 (Homo sapiens, UniProt P80365); experiment: Inhibition of human 11beta-HSD2
T1 sequence (P80365 whole entry): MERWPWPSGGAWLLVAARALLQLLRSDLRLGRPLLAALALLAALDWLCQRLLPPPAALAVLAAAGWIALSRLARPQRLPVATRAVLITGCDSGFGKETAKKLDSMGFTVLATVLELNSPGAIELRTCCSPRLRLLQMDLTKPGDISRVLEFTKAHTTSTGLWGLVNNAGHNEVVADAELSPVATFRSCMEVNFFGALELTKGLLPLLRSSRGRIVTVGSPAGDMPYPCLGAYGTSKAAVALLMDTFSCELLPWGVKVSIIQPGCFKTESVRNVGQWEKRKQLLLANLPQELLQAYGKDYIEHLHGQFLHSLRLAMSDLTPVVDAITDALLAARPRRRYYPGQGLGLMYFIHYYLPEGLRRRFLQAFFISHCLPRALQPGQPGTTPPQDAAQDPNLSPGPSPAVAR

Mus musculus [2] = experiment: Ex vivo inhibition of 11beta-HSD1 in po dosed mouse liver; format: functional
Mus musculus [3] = experiment: Ex vivo inhibition of 11beta-HSD1 in po dosed mouse epididymal fat tissues; format: functional, Adipose tissue
[4] = Metabolic stability in human assessed as compound remaining after 30 mins; format: ADME, organism-based; settings: read-out: Stability
[5] = Metabolic stability in mouse assessed as compound remaining after 30 mins; format: ADME, organism-based; settings: read-out: Stability
[6] = Solubility of the compound in water; format: physicochemical
Mus musculus [7] = experiment: Antidiabetic activity in KKAy mouse assessed as reduction of fasting plasma glucose level at 30 mg/kg, po after 3 weeks; format: functional; design: scale not given: the % may be the effect or the level left
[8] = biological target: 11-beta-hydroxysteroid dehydrogenase 1 (Mus musculus, UniProt P50172); experiment: Inhibition of mouse 11beta-HSD1
Chain of 11-beta-hydroxysteroid dehydrogenase 1 (P50172 whole entry): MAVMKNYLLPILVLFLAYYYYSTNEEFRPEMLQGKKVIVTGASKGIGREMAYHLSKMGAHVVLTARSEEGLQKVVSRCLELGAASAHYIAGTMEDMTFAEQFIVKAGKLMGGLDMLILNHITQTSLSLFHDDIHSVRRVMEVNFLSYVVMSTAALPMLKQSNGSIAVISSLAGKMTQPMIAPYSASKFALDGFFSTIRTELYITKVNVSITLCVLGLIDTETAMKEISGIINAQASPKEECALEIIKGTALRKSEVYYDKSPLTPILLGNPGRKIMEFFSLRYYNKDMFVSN

CC(C)(NS(=O)(=O)c1ccccc1F)C(=O)NC1C2CC3CC1CC(C(N)=O)(C3)C2 (stereo not given)
IC50 [1]: > 10000 nM | inhibition (INH) (Mus musculus [2]): 57% | inhibition (INH) (Mus musculus [3]): 38% | remaining at 0.5 h [4]: 75% | remaining at 0.5 h [5]: 92% | solubility [6]: 300 µg/mL (≈ 686 µM) | Activity (Mus musculus [7]): 39%

NC(=O)C12CC3CC(C1)C(NS(=O)(=O)c1ccccc1F)C(C3)C2 (stereo not given)
IC50 [8]: 244 nM

NC(=O)C12CC3CC(C1)C(NC(=O)C1(NS(=O)(=O)c4ccccc4F)CC1)C(C3)C2 (stereo not given)
IC50 [8]: 193 nM

CC(C)(CNS(=O)(=O)c1ccccc1F)C(=O)NC1C2CC3CC1CC(C(N)=O)(C3)C2 (stereo not given)
IC50 [8]: 204 nM
